Data reported in patent US9668960B2, “Methods useful in studying or modulating skin or hair pigmentation, plant extracts for use in compositions and cosmetic care method” (L V M H RECHERCHE, priority 2008, dated 2017).

What was measured:
[1] = tested on: melanosome transfer from melanocytes to matched keratinocytes; assay: Quantitative analysis of gp100-positive melanosome transfer in melanocyte-keratinocyte co-culture; type: cell-based, human; details: for gp 100+ Spots/KC / % Change of Melanin Transfer vs. Basal: 24 h; for gp 100+ Spots/KC: co-culture F39, L-18 0.001%, L-19 1%, L-20 0.5%, L-21 10 μg/ml, L-22 1%, L-23 0.05 μg/ml, basal 27.3; for % Change of Melanin Transfer vs. Basal: same doses as E10
Protocol: Quantitative analysis of melanosome transfer: Fully-matched epidermal melanocytes (p4) and epidermal keratinocytes (p2) from 4 normal individuals (i.e., F39; F67; F54; F52) were maintained in 8-well Lab-Tek® chamber slides at a total cell density of 2×10^4 cells/well and in a ratio of 1 melanocyte to 10 normal keratinocytes. The co-culture was maintained for further 24 h before washing 3-times with sterile PBS before incubation with starved medium alone, or L-18 (0.001%), L-19 (1%), L-20 (0.5%), L-21 (10 μg/ml), L-22 (1%) and L-23 (0.05 μg/ml) for 12 and 72 h. Controls included IBMX (100 μM) and niacinamide (10 μM). Cells were then processed for immunofluorescence staining with gp100 to assess melanosome transfer to keratinocytes.
Evaluation of melanosome transfer was performed by counting fluorescent gp100-positive spots within recipient keratinocytes in 5 random microscopic fields per well at 100× magnification (oil-immersion) in 3 independent experiments. To avoid counting melanin granules that may still be associated with melanocytes, we only counted gp100-positive spots within keratinocytes that were not in direct contact with melanocytes.
Gp100 immunostaining provides a powerful tracking method for the global assessment of melanin transfer to keratinocytes, and for the evaluation of melanocyte phenotype modulators (Singh et al., 2008). […] In this assay melanosome transfer from melanocytes to matched keratinocytes under basal (i.e., unstimulated) conditions was determined at an average of 27.3 gp100-positive spots per keratinocyte. However, this was increased almost 4-fold after 24 h stimulation of co-cultures with IBMX to 99.5 gp100-positive spots per keratinocyte. Conversely, niacinamide reduced melanosome transfer by 28% (19.6 gp100-positive spots per keratinocyte; p<0.01; a result that correlates with its clinical use as a lightener of cutaneous pigmentation (Hakozaki et al, 2002; Greatens et al., 2005).
Means are ±SEM of 4 independent experiments with **P<0.01, ***P<0.001.

[2] = tested on: Normal human epidermal melanocytes (F52; p5); assay: Melanin assay (melanogenesis) in normal pigmented human melanocytes; type: cell-based; details: 72 h; for Changes in melanin levels, F52 EM % change: L-18 0.001%, L-19 1%, L-20 0.5%, L-21 10 μg/ml, L-22 1%, L-23 0.05 μg/ml, IBMX 100 μM, NH4Cl 100 μM, niacinamide 10 μM, vs basal; for Melanin content, F52 EM (pg/cell): same doses as E1, basal 35.63
Protocol: Cells were then washed 3-times with sterile PBS and supplemented with 350 μl of either fresh serum-free RPMI medium (melanoma cells) or starved serum-free and BPE-free melanocyte medium (EM) and incubated at 37° C. and 5% CO2 for 24 h. Cells were then washed with sterile PBS 3-times and incubated with IBMX 1×10^-4 M at 37° C. and 5% CO2 for 12, 24, and 72 h. Cells were then gently washed 3-times with sterile PBS and fixed in ice-cold methanol for 10 minutes at -20° C. Slides were stored at -20° C. until immunocytochemistry was performed. […] The melanin standards were pipetted into a 96 well plate to produce a calibration curve for the assessment of melanin content in the test samples. 400 μl of 1 M NaOH was added to each cell pellet and dissolved on a heat block (100° C.) for 15 minutes. The pellets were vortexed vigorously and the solubilized pellet was pipetted into the same 96-well plate. The optical densities of the sample were read at […] on a DYNEX REVELATION 4.02 program. Melanin content of each test sample was read from the calibration curve. […] In addition IBMX and NH4Cl (positive melanocytic modulators) and niacinamide (negative modulator) were used as controls. Visible change was not particularly evident in normal melanocyte due to their already high basal melanin levels (FIG. 1). By contrast, visible change was evident in melanoma cells basal melanin levels were low (FIG. 2). […] Normal human epidermal melanocytes (Female-52; p5) were treated for 72 h with L-18 (0.001%), L-19 (1%), L-20 (0.5%), L-21 (10 μg/ml), L-22 (1%) and L-23 (0.05 μg/ml). Controls: Melanocytic modulators: IBMX (100 μM), NH4Cl (100 μM), and niacinamide (10 μM). (A) Melanin content was determined spectro-photometrically (475 nm) after sodium hydroxide solubilise (B) Visible change was not particularly evident in these cells due to their already high basal melanin levels. Results were expressed as change in melanin content (pg/cell) compared to unstimulated control levels. Means are ±SEM of 3 independent experiments with *P<0.05, **P<0.01, ***P<0.001. NS-Not Significant

tyrosinase [3] = assay: DOPA oxidase detection for tyrosinase activity in FM55 melanoma; type: cell-based, human; details: 72 h; for Changes in tyrosinase activity, FM55 % change: same doses as E5, vs basal
Protocol: The cells were prepared for SDS-PAGE and transblotted onto PVDF membranes. 70 μg of un-reduced protein extract without boiling was pipetted into the appropriate wells of 8% SDS-PAGE gels. […] The L-DOPA reaction was stopped by washing the membrane in distilled water and the membrane was scanned. […] In addition IBMX and NH4Cl (positive melanocytic modulators) and niacinamide (negative modulator) were used as controls. […] Controls: Melanocytic modulators: IBMX (100 μM), NH4Cl (100 μM), and niacinamide (10 μM.). (A) Protein extracts were electroblotted and membranes stained with L-DOPA for the estimation of tyrosinase activity. (B) Densitometric scanning of band intensities and values were expressed as the fold increase compared to unstimulated control levels. Means are ±SEM of 3 independent experiments with *P<0.05, **P<0.01, ***P<0.001.

tyrosinase [4] = assay: DOPA oxidase detection for tyrosinase activity in pigmented normal human melanocytes; type: cell-based; details: 72 h; for Changes in tyrosinase activity, F52 EMc % change / % Change in EM Tyrosinase Activity vs. Basal EM level (i.e. 0), EM: L-18 0.001%, L-23 0.05 μg/ml, IBMX 100 μM, niacinamide 10 μM; for Changes in tyrosinase activity, F52 EMc % change: L-19 1%, L-20 0.5%, L-21 10 μg/ml, L-22 1%, NH4Cl 100 μM, vs basal; for % Change in EM Tyrosinase Activity vs. Basal EM level (i.e. 0), EM: EM monoculture (F52)
Protocol: The cells were prepared for SDS-PAGE and transblotted onto PVDF membranes. 70 μg of un-reduced protein extract without boiling was pipetted into the appropriate wells of 8% SDS-PAGE gels. […] The L-DOPA reaction was stopped by washing the membrane in distilled water and the membrane was scanned. […] In addition IBMX and NH4Cl (positive melanocytic modulators) and niacinamide (negative modulator) were used as controls. […] Normal human epidermal melanocytes (Female-52; p5) were treated for 72 h with L-18 (0.001%), L-19 (1%), L-20 (0.5%), L-21 (10 μg/ml), LVMH-22 (1%) and L-23 (0.05 μg/ml). Controls: Melanocytic modulators: IBMX (100 μM), NH4Cl (100 μM), and niacinamide (10 μM). (A) Protein extracts were electroblotted and membranes stained with L-DOPA for the estimation of tyrosinase activity.

| SMILES | gp 100+ Spots/KC ([1]; IBMX 100 μM, niacinamide 10 μM) | % Change of Melanin Transfer vs. Basal [1] | melanosome transfer increased, fold versus basal ([1]; 24 h stimulation of co-cultures, IBMX 100 μM) | Changes in melanin levels, F52 EM % change [2] | Melanin content, F52 EM (pg/cell) [2] | Changes in tyrosinase activity, FM55 % change (tyrosinase [3]) | effect on tyrosinase (dopa oxidase) activity compared with basal levels (tyrosinase [3]; FM55 melanoma cells, doses as E5) | Changes in tyrosinase activity, F52 EMc % change (tyrosinase [4]) | % Change in EM Tyrosinase Activity vs. Basal EM level (i.e. 0), EM (tyrosinase [4]) | effect on tyrosinase (dopa oxidase) activity compared with basal levels (tyrosinase [4]; normal melanocytes (EM), doses as E5) | melanosome transfer reduced by ([1]; niacinamide 10 μM, p<0.01) |
| --- | --- | --- | --- | --- | --- | --- | --- | --- | --- | --- | --- |
| CC(C)Cn1c(=O)n(C)c(=O)c2[nH]cnc21 [IBMX] | 99.5 Spots/KC | +264% | ~4 fold | +74.57% | (62.2) pg/cell | +141.72% | dramatic increase in dopa oxidase activity of tyrosinase | +72.47% | +56.51% | dramatic increase in dopa oxidase activity of tyrosinase |  |
| NC(=O)c1cccnc1 [niacinamide] | 19.6 Spots/KC | −28% |  | −4.01% | (34.2) pg/cell | −3.31% |  | −4.58% | −2.12% |  | 28% |
